# Source: patent US10414811B2, “Protease-resistant lipidated GLP-1 analogs” (MEDIMMUNE LIMITED, priority 2015, dated 2019)
# Where two headings read alike, the source gives them in different places. Numbered stars: 1 amine (or outer) side, 2 acyl side, 3 side chain; on linkers, the order of the positions; unused ones are H or OH. Square brackets hold non-standard residues; d marks the D form. Side chains are listed from the residue outwards. Peptide text beside a SMILES is read from it. * marks the point of attachment. γGlu = O=C(O)[C@H](CCC(=O)[*:2])N[*:1]; Palmitoyl = CCCCCCCCCCCCCCCC(=O)*; αMeF = C[C@](N)(Cc1ccccc1)C(=O)O; αMeK = C[C@](N)(CCCCN)C(=O)O; Lauroyl = CCCCCCCCCCCC(=O)*; αMeS = C[C@](N)(CO)C(=O)O; AEEA = NCCOCCOCC(=O)O; Aib = CC(C)(N)C(=O)O
# Legend:
# [1] = target: T1, human glucose-dependent insulinotropic peptide receptor (GIPR) (Homo sapiens, UniProt P48546); assay: cAMP assay, human GIPR cells; format: cell-based
# T1 construct: expressed in transfected cells
# T1 sequence (P48546 22-466): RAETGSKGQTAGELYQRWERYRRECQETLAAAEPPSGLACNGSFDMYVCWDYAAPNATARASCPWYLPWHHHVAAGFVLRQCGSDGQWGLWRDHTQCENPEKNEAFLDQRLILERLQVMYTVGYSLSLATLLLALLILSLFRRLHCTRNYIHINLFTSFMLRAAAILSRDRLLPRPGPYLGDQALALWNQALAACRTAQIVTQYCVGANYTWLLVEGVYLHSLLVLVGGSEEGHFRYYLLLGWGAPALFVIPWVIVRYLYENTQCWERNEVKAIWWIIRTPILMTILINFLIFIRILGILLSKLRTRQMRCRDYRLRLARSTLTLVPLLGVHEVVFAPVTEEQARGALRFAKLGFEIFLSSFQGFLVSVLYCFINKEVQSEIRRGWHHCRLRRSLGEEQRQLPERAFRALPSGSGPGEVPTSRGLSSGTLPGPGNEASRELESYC
# In short: (§1)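 Peptide-stimulated cAMP measured by two-step HTRF after a 30 min room-temperature incubation with receptor-expressing cells (hGLP-1R, hGIPR at 1×10^5 cells/ml; hGCGR at 2×10^5 cells/ml). Duplicate dilutions; EC50 from 4-parameter logistic fit of % Delta F.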
# GLP-1R (INS1e assay) = target: T2, GLP-1R (INS1e assay) (Rattus norvegicus, UniProt P32301); assay: INS1e assay, cAMP activity at GLP-1R; format: cell-based
# T2 construct: endogenous in cells; host or cells: INS-1E cells
# T2 sequence (P32301 22-463): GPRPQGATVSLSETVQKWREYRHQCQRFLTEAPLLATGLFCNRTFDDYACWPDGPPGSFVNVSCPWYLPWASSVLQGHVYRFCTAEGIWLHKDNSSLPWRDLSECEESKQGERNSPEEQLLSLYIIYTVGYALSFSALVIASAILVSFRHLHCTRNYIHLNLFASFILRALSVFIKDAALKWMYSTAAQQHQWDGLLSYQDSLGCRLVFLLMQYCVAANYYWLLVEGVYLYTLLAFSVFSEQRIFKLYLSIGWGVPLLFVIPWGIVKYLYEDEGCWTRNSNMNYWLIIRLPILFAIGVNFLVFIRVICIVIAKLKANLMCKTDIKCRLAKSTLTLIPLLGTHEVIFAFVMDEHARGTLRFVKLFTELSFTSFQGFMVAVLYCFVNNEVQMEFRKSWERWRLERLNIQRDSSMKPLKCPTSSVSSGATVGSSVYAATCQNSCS
# In short: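 cAMP was quantified by two-step HTRF, using anti-cAMP cryptate donor and cAMP-d2 acceptor, each diluted 1/20 in conjugate and lysis buffer. EC50 values of the synthetic peptides were derived from the cAMP readout.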
# [2] = target: T3, human glucagon receptor (GCGR) (Homo sapiens, UniProt P47871); assay: cAMP assay, human GCGR cells; format: cell-based
# T3 construct: expressed in transfected cells
# In short: as §1
# Neprilysin = target: T4, Neprilysin (Homo sapiens, UniProt P08473); assay: Proteolytic resistance to neprilysin (% remaining peptide, RP-HPLC AUC); format: in vitro ADME; conditions: t = 0; 37° C., pH 8.3
# T4 construct: purchased R&D Systems 1182-ZNC-010
# Protocol: Ratio enzyme (units):peptide (μmoles)˜1:33. […] Ratio enzyme (units):peptide (μmoles)˜1:2.5.
# 15 μL aliquots (˜15 μg initial peptide) of the peptide-enzyme mixture were periodically withdrawn (t=0, 30 mins, 1 hr, 2 hr, 4 hr, 8 hr, 24 hr) and quenched immediately by addition to an equal volume (15 μL) of 5% TFA (v/v) in 1:1 water/acetonitrile to arrest proteolytic activity. 20 μL aliquots (˜10 μg initial peptide) were analyzed by LC/MS and/or analytical RP-HPLC as follows: LC/MS method: Agilent Polaris C8-A column (4.6×100 mm, 3 micron) eluted with a linear binary gradient of 10-90% MeCN (0.1% TFA v/v) in water (0.1% TFA v/v) over 30 mins at 1.5 mL min-1 at ambient temperature with detection by both UV absorption at 210 nm and ionization using a Waters 3100 mass detector (ESI+ mode). Peptide fragments deriving from enzymatic hydrolysis were identified by molecular weight, allowing location of the site of cleavage. Analytical RP-HPLC method: Agilent Polaris C8-A column (4.6×100 mm, 3 micron) eluted with a linear binary gradient of 10-90% MeCN (0.1% TFA v/v) in water (0.1% TFA v/v) over either 10 or 15 mins at 1.5 mL min^−1 at 40° C. with detection by UV absorption at 210 nm. Manual integration (AUC) allowed estimation of remaining intact peptide over the time course of the experiment.
# 25 μL aliquots (˜6 μg initial peptide) were analyzed by LC/MS and/or analytical RP-HPLC as follows: LC/MS method: Agilent Polaris C8-A column (4.6×100 mm, 3 micron) eluted with a linear binary gradient of 10-90% MeCN (0.1% TFA v/v) in water (0.1% TFA v/v) over 30 mins at 1.5 mL min^−1 at ambient temperature with detection by both UV absorption at 210 nm and ionization using a Waters 3100 mass detector (ESP mode). Peptide fragments deriving from enzymatic hydrolysis were identified by molecular weight, allowing location of the site of cleavage. Analytical RP-HPLC method: Agilent Polaris C8-A column (4.6×100 mm, 3 micron) eluted with a linear binary gradient of 10-90% MeCN (0.1% TFA v/v) in water (0.1% TFA v/v) over either 10 or 15 mins at 1.5 mL min^−1 at 40° C. with detection by UV absorption at 210 nm. Manual integration (AUC) allowed estimation of remaining intact peptide over the time course of the experiment.
# [3] = target: T5, human GLP-1 receptor (GLP-1R) (Homo sapiens, UniProt P43220); assay: cAMP assay, human GLP-1R cells; format: cell-based; conditions: tris-lipidated peptides
# T5 construct: expressed in transfected cells
# In short: as §1
# [4] = tris-lipidated peptides, second replicate, read-out: Primary assay EC50 GIP-R (n2)
# [5] = tris-lipidated peptides, mean of n1 and n2, read-out: INS1e assay EC50 Mean pM GLP-1R
# [6] = tris-lipidated peptides, replicate n1, read-out: INS1e assay EC50 GLP-1R n1
# [7] = tris-lipidated peptides, replicate n2, read-out: INS1e assay EC50 GLP-1R n2
# [8] = tris-lipidated peptides, second replicate, read-out: Primary assay EC50 Gluc-R (n2)
# [9] = mean of n1 and n2, read-out: Primary assay EC50 Mean pM GLP-1R
# [10] = replicate n1, read-out: Primary assay EC50 GLP-1R n1
# [11] = replicate n2, read-out: Primary assay EC50 GLP-1R n2
# T5 sequence (P43220 24-463): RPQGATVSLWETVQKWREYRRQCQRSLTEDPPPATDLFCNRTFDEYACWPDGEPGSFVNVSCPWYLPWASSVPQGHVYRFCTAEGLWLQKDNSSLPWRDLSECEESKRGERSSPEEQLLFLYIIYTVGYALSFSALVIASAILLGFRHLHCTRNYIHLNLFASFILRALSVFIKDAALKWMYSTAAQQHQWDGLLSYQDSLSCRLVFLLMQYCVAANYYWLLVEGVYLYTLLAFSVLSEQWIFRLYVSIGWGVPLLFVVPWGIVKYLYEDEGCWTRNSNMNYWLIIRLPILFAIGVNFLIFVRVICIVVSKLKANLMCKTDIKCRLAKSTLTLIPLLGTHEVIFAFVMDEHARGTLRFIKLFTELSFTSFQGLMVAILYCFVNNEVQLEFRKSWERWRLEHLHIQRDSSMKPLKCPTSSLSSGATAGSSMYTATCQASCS
# T3 sequence (P47871 26-477): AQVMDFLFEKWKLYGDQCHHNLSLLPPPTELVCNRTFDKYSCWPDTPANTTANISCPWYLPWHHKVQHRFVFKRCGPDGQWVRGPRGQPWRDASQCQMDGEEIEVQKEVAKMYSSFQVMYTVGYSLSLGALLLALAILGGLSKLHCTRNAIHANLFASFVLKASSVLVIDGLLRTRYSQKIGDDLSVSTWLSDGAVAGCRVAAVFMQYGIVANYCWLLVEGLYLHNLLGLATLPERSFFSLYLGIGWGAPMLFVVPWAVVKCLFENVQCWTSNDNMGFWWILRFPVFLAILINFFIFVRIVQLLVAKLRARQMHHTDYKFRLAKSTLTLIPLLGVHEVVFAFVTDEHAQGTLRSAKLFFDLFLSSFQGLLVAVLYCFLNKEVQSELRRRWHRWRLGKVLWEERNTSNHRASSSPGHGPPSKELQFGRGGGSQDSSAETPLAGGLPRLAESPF
# T4 sequence (P08473 whole entry): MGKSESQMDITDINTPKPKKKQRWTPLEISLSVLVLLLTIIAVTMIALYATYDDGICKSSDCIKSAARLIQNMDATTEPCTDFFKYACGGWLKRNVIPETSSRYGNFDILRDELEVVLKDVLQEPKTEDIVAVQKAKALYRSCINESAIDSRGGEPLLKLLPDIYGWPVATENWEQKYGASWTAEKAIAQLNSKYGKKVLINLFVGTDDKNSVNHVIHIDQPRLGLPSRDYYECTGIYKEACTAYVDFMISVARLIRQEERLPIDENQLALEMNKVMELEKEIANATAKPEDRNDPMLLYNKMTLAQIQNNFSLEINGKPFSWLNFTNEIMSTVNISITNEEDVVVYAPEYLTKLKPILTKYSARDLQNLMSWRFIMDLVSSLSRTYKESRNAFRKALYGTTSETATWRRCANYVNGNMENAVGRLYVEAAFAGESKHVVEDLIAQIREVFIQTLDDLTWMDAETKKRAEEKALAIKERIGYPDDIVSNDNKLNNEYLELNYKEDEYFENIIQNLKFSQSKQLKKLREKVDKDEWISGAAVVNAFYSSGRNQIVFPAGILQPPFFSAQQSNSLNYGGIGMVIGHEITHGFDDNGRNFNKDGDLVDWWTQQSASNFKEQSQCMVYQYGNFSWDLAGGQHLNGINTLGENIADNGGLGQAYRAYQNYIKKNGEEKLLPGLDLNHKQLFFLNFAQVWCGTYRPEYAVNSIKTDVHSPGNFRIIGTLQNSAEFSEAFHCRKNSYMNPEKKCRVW
SMILES,"EC50 ([1]; cAMP assay, first determination (n1), read-out: Primary assay EC50 GIP-R (n1)) [nM]","EC50 ([1]; cAMP assay, second determination (n2), read-out: Primary assay EC50 GIP-R (n2)) [nM]","EC50 (GLP-1R (INS1e assay); mono-lipidated peptides, mean of n1 and n2, read-out: INS1e assay EC50 Mean pM GLP-1R) [pM]","EC50 (GLP-1R (INS1e assay); mono-lipidated peptides, replicate n1, read-out: INS1e assay EC50 GLP-1R n1) [pM]","EC50 (GLP-1R (INS1e assay); mono-lipidated peptides, replicate n2, read-out: INS1e assay EC50 GLP-1R n2) [pM]","EC50 ([2]; cAMP assay, first determination (n1), read-out: Primary assay EC50 Gluc-R (n1)) [nM]","EC50 ([2]; cAMP assay, second determination (n2), read-out: Primary assay EC50 Gluc-R (n2)) [nM]","Percentage remaining peptide (AUC at specified time-point by RP-HPLC) upon incubation with neprilysin, t = 0 (Neprilysin) [%]","EC50 [1, 4] [nM]",EC50 (GLP-1R (INS1e assay); [5]) [pM],EC50 (GLP-1R (INS1e assay); [6]) [pM],EC50 (GLP-1R (INS1e assay); [7]) [pM],"EC50 [2, 8] [nM]","EC50 [3, 9] [pM]","EC50 [3, 10] [pM]","EC50 [3, 11] [pM]","EC50 ([1]; tris-lipidated peptides, first replicate, read-out: Primary assay EC50 GIP-R (n1)) [nM]","EC50 ([2]; tris-lipidated peptides, first replicate, read-out: Primary assay EC50 Gluc-R (n1)) [nM]"
CC[C@H](C)[C@H](NC(=O)[C@](C)(Cc1ccccc1)NC(=O)[C@H](CCC(=O)O)NC(=O)[C@](C)(CCCCN)NC(=O)[C@H](C)NC(=O)[C@H](C)NC(=O)[C@H](CCC(=O)O)NC(=O)CNC(=O)[C@H](CCC(=O)O)NC(=O)[C@H](CC(C)C)NC(=O)[C@](C)(Cc1ccccc1)NC(=O)[C@H](CO)NC(=O)[C@](C)(CO)NC(=O)[C@@H](NC(=O)[C@H](CC(=O)O)NC(=O)[C@H](CO)NC(=O)[C@@H](NC(=O)[C@](C)(Cc1ccccc1)NC(=O)[C@H](CO)NC(=O)CNC(=O)[C@H](CCC(=O)O)NC(=O)C(C)(C)NC(=O)[C@@H](N)Cc1c[nH]cn1)[C@@H](C)O)C(C)C)C(=O)N[C@@H](C)C(=O)N[C@@](C)(Cc1ccccc1)C(=O)N[C@H](C(=O)N[C@H](C(=O)N[C@@](C)(CCCCN)C(=O)NCC(=O)NCC(N)=O)C(C)C)C(C)C [compound 17],≥ 31,≥ 31,6,5.1,7.87,≥ 31,≥ 31,100,–,–,–,–,–,–,–,–,–,–
CCCCCCCCCCCC(=O)N[C@@H](CCC(=O)NCCOCCOCC(=O)NCCOCCOCC(=O)NCCCC[C@H](NC(=O)[C@H](C)NC(=O)[C@@H](NC(=O)[C@H](Cc1ccccc1)NC(=O)[C@H](CCC(=O)O)NC(=O)[C@](C)(CCCCN)NC(=O)[C@H](C)NC(=O)[C@H](C)NC(=O)[C@H](CCC(=O)O)NC(=O)[C@H](CCCCNC(=O)COCCOCCNC(=O)COCCOCCNC(=O)CC[C@H](NC(=O)CCCCCCCCCCC)C(=O)O)NC(=O)[C@H](CCC(=O)O)NC(=O)[C@H](CCCCNC(=O)COCCOCCNC(=O)COCCOCCNC(=O)CC[C@H](NC(=O)CCCCCCCCCCC)C(=O)O)NC(=O)[C@H](Cc1ccc(O)cc1)NC(=O)[C@H](CO)NC(=O)[C@](C)(CO)NC(=O)[C@@H](NC(=O)[C@H](CC(=O)O)NC(=O)[C@H](CO)NC(=O)[C@@H](NC(=O)[C@](C)(Cc1ccccc1)NC(=O)[C@H](CO)NC(=O)CNC(=O)[C@H](CCC(=O)O)NC(=O)C(C)(C)NC(=O)[C@@H](N)Cc1c[nH]cn1)[C@@H](C)O)C(C)C)[C@@H](C)CC)C(=O)N[C@H](C(=O)N[C@H](C(=O)N[C@@H](CCC(=O)O)C(=O)NCC(=O)NCC(N)=O)C(C)C)C(C)C)C(=O)O [compound 467] (H-H[Aib]EGS[αMeF]TSDV[αMeS]SYK([AEEA-AEEA-γGlu-Lauroyl])EK([AEEA-AEEA-γGlu-Lauroyl])EAA[αMeK]EFIAK([AEEA-AEEA-γGlu-Lauroyl])VVEGG-NH2; N-terminus assumed),–,–,–,–,–,–,–,–,19.8,8920,9920,7910,19.8,55.4,49.3,61.5,–,–
CCCCCCCCCCCC(=O)N[C@@H](CCC(=O)NCCOCCOCC(=O)NCCOCCOCC(=O)NCCCC[C@H](NC(=O)[C@H](C)NC(=O)[C@@H](NC(=O)[C@H](Cc1ccccc1)NC(=O)[C@H](CCC(=O)O)NC(=O)[C@](C)(CCCCN)NC(=O)[C@H](C)NC(=O)[C@H](CCCCNC(=O)COCCOCCNC(=O)COCCOCCNC(=O)CC[C@H](NC(=O)CCCCCCCCCCC)C(=O)O)NC(=O)[C@H](CCC(=O)O)NC(=O)CNC(=O)[C@H](CCC(=O)O)NC(=O)[C@H](CCCCNC(=O)COCCOCCNC(=O)COCCOCCNC(=O)CC[C@H](NC(=O)CCCCCCCCCCC)C(=O)O)NC(=O)[C@H](Cc1ccc(O)cc1)NC(=O)[C@H](CO)NC(=O)[C@](C)(CO)NC(=O)[C@@H](NC(=O)[C@H](CC(=O)O)NC(=O)[C@H](CO)NC(=O)[C@@H](NC(=O)[C@](C)(Cc1ccccc1)NC(=O)[C@H](CO)NC(=O)CNC(=O)[C@H](CCC(=O)O)NC(=O)C(C)(C)NC(=O)[C@@H](N)Cc1c[nH]cn1)[C@@H](C)O)C(C)C)[C@@H](C)CC)C(=O)N[C@H](C(=O)N[C@H](C(=O)N[C@@H](CCC(=O)O)C(=O)NCC(=O)NCC(N)=O)C(C)C)C(C)C)C(=O)O [compound 469] (H-H[Aib]EGS[αMeF]TSDV[αMeS]SYK([AEEA-AEEA-γGlu-Lauroyl])EGEK([AEEA-AEEA-γGlu-Lauroyl])A[αMeK]EFIAK([AEEA-AEEA-γGlu-Lauroyl])VVEGG-NH2; N-terminus assumed),–,–,–,–,–,–,–,–,19.8,4900,6900,2890,19.8,45.4,41.8,49,–,–
CCCCCCCCCCCC(=O)N[C@@H](CCC(=O)NCCOCCOCC(=O)NCCOCCOCC(=O)NCCCC[C@H](NC(=O)[C@H](CO)NC(=O)[C@](C)(CO)NC(=O)[C@@H](NC(=O)[C@H](CC(=O)O)NC(=O)[C@H](CO)NC(=O)[C@@H](NC(=O)[C@](C)(Cc1ccccc1)NC(=O)[C@H](CO)NC(=O)CNC(=O)[C@H](CCC(=O)O)NC(=O)C(C)(C)NC(=O)[C@@H](N)Cc1c[nH]cn1)[C@@H](C)O)C(C)C)C(=O)N[C@@H](CC(C)C)C(=O)N[C@@H](CCC(=O)O)C(=O)NCC(=O)N[C@@H](CCC(=O)O)C(=O)N[C@@H](C)C(=O)N[C@@H](C)C(=O)N[C@@](C)(CCCCN)C(=O)N[C@@H](CCCCNC(=O)COCCOCCNC(=O)COCCOCCNC(=O)CC[C@H](NC(=O)CCCCCCCCCCC)C(=O)O)C(=O)N[C@@H](Cc1ccccc1)C(=O)N[C@H](C(=O)N[C@@H](C)C(=O)N[C@@H](Cc1ccccc1)C(=O)N[C@@H](CCCCNC(=O)COCCOCCNC(=O)COCCOCCNC(=O)CC[C@H](NC(=O)CCCCCCCCCCC)C(=O)O)C(=O)N[C@H](C(=O)N[C@@H](CCC(=O)O)C(=O)NCC(=O)NCC(N)=O)C(C)C)[C@@H](C)CC)C(=O)O [compound 482] (H-H[Aib]EGS[αMeF]TSDV[αMeS]SK([AEEA-AEEA-γGlu-Lauroyl])LEGEAA[αMeK]K([AEEA-AEEA-γGlu-Lauroyl])FIAFK([AEEA-AEEA-γGlu-Lauroyl])VEGG-NH2),–,–,–,–,–,–,–,–,–,5860,8570,3150,–,36.3,28.3,44.2,20,20
CCCCCCCCCCCCCCCC(=O)NCCCC[C@H](NC(=O)CNC(=O)CNC(=O)[C@](C)(CCCCN)NC(=O)[C@@H](NC(=O)[C@@H](NC(=O)[C@](C)(Cc1ccccc1)NC(=O)[C@H](C)NC(=O)[C@@H](NC(=O)[C@](C)(Cc1ccccc1)NC(=O)[C@H](CCC(=O)O)NC(=O)[C@](C)(CCCCN)NC(=O)[C@H](C)NC(=O)[C@H](C)NC(=O)[C@H](CCC(N)=O)NC(=O)CNC(=O)[C@H](CCC(=O)O)NC(=O)[C@H](CC(C)C)NC(=O)[C@](C)(Cc1ccccc1)NC(=O)[C@H](CO)NC(=O)[C@H](CO)NC(=O)[C@@H](NC(=O)[C@H](CC(=O)O)NC(=O)[C@H](CO)NC(=O)[C@@H](NC(=O)[C@](C)(Cc1ccccc1)NC(=O)[C@H](CO)NC(=O)CNC(=O)[C@H](CCC(=O)O)NC(=O)C(C)(C)NC(=O)[C@@H](N)Cc1c[nH]cn1)[C@@H](C)O)C(C)C)[C@@H](C)CC)C(C)C)C(C)C)C(N)=O [compound 489] (H-H[Aib]EGS[αMeF]TSDVSS[αMeF]LEGQAA[αMeK]E[αMeF]IA[αMeF]VV[αMeK]GGK(Palmitoyl)-NH2),–,–,–,–,–,–,–,100,–,–,–,–,–,–,–,–,–,–
